Results from paper PMC6531005 (Science Advances, 2019).

Tests used:
Format in all cases: biochemical
CDC7 kinase = CDC7 kinase (Homo sapiens, UniProt O00311); test: TR-FRET
CDK2 kinase = CDK2 kinase (Homo sapiens, UniProt P24941); test: enzymatic kinase inhibition assay, CDK2/cyclin E
CDK9 = CDK9 (Homo sapiens, UniProt P50750); test: SelectScreen kinase selectivity panel
Chain of CDK9 (P50750 whole entry): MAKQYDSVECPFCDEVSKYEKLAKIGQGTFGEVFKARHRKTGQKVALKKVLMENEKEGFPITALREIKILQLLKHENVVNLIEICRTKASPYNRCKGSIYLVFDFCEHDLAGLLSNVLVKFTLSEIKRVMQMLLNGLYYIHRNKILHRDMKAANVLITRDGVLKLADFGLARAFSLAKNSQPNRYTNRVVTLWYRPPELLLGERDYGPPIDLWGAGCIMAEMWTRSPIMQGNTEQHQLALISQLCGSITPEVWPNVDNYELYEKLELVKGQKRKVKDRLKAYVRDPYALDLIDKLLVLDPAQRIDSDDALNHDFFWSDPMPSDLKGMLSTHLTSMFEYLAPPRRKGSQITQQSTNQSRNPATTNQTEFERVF

Chain of CDC7 kinase (O00311 whole entry): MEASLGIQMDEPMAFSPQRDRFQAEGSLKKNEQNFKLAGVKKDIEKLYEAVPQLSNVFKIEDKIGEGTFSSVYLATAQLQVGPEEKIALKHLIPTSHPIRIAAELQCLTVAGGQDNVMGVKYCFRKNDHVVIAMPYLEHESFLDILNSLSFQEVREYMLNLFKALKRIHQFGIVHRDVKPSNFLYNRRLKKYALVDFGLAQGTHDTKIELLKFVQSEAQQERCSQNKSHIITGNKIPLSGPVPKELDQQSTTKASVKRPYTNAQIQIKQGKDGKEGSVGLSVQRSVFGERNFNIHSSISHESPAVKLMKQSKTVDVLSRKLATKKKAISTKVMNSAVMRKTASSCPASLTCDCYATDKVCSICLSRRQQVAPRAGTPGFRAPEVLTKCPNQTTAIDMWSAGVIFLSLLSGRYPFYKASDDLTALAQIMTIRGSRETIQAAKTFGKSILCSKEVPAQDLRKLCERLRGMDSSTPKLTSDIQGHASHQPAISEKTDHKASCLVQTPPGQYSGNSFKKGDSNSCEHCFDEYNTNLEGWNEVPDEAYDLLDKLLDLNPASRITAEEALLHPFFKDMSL
Chain of CDC7 kinase (Q9UBU7 whole entry partner): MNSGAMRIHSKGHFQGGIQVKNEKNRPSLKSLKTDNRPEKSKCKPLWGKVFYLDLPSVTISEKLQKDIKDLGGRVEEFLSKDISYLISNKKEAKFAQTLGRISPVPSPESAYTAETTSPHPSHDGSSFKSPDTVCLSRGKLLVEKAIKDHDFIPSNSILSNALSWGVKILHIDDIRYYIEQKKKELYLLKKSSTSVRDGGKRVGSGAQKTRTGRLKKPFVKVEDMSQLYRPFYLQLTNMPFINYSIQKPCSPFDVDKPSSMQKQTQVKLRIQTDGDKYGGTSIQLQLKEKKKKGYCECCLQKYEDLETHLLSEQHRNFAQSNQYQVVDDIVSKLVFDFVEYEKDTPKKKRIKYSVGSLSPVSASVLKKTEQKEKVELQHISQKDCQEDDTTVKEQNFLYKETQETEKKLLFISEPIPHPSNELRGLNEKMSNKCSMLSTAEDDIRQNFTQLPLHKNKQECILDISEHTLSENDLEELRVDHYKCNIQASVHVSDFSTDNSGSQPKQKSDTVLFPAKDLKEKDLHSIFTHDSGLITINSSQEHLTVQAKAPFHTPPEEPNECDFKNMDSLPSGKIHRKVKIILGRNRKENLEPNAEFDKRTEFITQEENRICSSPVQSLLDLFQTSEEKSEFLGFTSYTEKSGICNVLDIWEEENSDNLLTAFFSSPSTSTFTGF

SMILES: Cc1n[nH]cc1-c1cc2nc([C@@H]3CC4CCN3CC4)[nH]c(=O)c2s1 [TAK-931, 2-[(2S)-1-azabicyclo[2.2.2]oct-2-yl]-6-(3-methyl-1H-pyrazol-4-yl)thieno[3,2-d]pyrimidin-4(3H)-one hemihydrate]
- IC50 (CDC7 kinase): < 0.0003 µM
- IC50 (CDK2 kinase): 6.3 µM
- SelectScreen kinase selectivity panel (fig. S1B) (CDK9): CDK9, which is the second high-affinity target of TAK-931 (fig. S1B)
